Reference: patent US11478551B2, “Long-acting adrenomedullin derivative” (University of Miyazaki, priority 2015, dated 2022)

How the values were obtained:
Assay type in all cases: in vivo
[1] = test system: adjuvant-induced arthritis models; assay: Adjuvant-induced arthritis model; details: 1 and 10 nmol/kg subcutaneous, rat
Protocol: The compound (8) was subcutaneously administered to each rat. […] Physiological saline was administered as a vehicle to a control group. The paw volumes and swelling rates of the right and left legs were measured on days 0 (day before the adjuvant administration), 4, 7, 10 and 14 using a paw volume measurement apparatus (MK-550, Muromachi Kikai Co., Ltd.). Inflammation scores on days 0 (day before the adjuvant administration), 4, 7, 10 and 14 were evaluated on the basis of the scores shown in Table 5.

[2] = Measurement over time of AM concentration in plasma after subcutaneous administration (RIA); details: 10 nmol/kg subcutaneous single dose, rat
Protocol: 1 day, 7 days and 10 days after the start of the administration, 50 mg of pentobarbital was intraperitoneally administered, and 300 μL of blood was collected each time from the tail vain under anesthesia. Immediately, 300 μg of EDTA-2Na and […] of aprotinin were added to the obtained blood sample, and the mixture was centrifuged under conditions involving 10 minutes and 3000 rpm to obtain plasma. The AM concentration in the plasma of each sample was measured by radioimmunoassay (RIA) (Kitamura K, Ichiki Y, Tanaka M et al., Immunoreactive adrenomedullin in human plasma. FEBS Lett., vol. 341, p. 288-90, 1994).
The compound (37) prepared in experiment III-1 was subcutaneously administered in a single dose of 30 nmol/kg to each rat, and time-dependent change in the concentration in blood of the adrenomedullin derivative was observed. The compound (37) dissolved in physiological saline was subcutaneously administered to each 7- to 8-week-old male Wistar rat (approximately 250 g). 1 day, 2 days, 4 days, 7 days and 9 days after the start of the administration, 50 mg of pentobarbital was intraperitoneally administered, and 300 μL of blood was collected each time from the tail vain under anesthesia. Immediately, 300 μg of EDTA-2Na and […] of aprotinin were added to the obtained blood sample, and the mixture was centrifuged under conditions involving 10 minutes and 3000 rpm to obtain plasma. The AM concentration in the plasma of each sample was measured by RIA.

Wistar rat = assay: Blood pressure-lowering effect, single intravenous dose in rat under anesthesia; details: 1 nmol/kg, single dose into the vein
Protocol: Each compound prepared in experiments I-1 and II-1 or full-length AM was administered in a single dose of 1 nmol/kg into the vein of each rat under anesthesia, and change in the blood pressure of the rat was observed. Each 11 to 14-week-old male Wistar rat was anesthetized by the inhalation of isoflurane. After tracheotomy, inhalational anesthesia was controlled at an isoflurane concentration of 1.5 to 2.5% and a flow rate of 0.6 to 0.8 L/min. The right jugular vein was isolated from the rat, and a catheter tube corresponding to 26 G was inserted thereto. Next, the left carotid artery was isolated from the rat thus treated, and a catheter tube corresponding to 23 G was inserted thereto. From the catheter tube of the right jugular vein, a physiological saline-heparin solution (physiological saline: 100 mL; heparin: 1000 units) was infused at 2.4 mL/hr. […] The catheter inserted in the carotid artery was connected to a pressure transducer. […] In the diagram, the ordinate depicts a difference obtained by subtracting the average blood pressure before the administration of each drug from the average blood pressure at the time of the administration of each drug.

[3] = test system: spontaneously hypertensive rat (SHR); assay: Effect of suppressing increase in blood pressure in spontaneously hypertensive rat (SHR) fed high-salt diet; details: 336 μg/100 μL subcutaneous single dose, SHR on high-salt diet (8% NaCl), 9 days after administration
Protocol: Each 8-week-old male SHR (approximately 200 g) was fed with a high-salt diet (8% NaCl). The compound (8) was administered in a form dissolved in physiological saline at the time of feeding with the high-salt diet. 100 μL of physiological saline was subcutaneously administered in a single dose to each male SHR (approximately 200 g) in the same condition as above in a control group.

[4] = test system: DSS-induced colitis models; assay: Dextran sodium sulfate (DSS)-induced colitis model; details: mouse
Protocol: The compound (8) was subcutaneously administered to the back of each mouse. On the day following the administration (day 0), colitis model preparation was started by administration of 3% DSS as drinking water for 7 days. […] Physiological saline was administered as a vehicle to a control group. The body weight and the form of stool were evaluated on days 3, 5 and 7 counted from the start date of the DSS administration (day 0) on the basis of the scores shown in Table 4.

[5] = test system: vascular occlusion model rats; assay: Vascular occlusion model, Morris water maze test; details: 1 and 10 nmol/kg subcutaneous, rat
Protocol: Physiological saline was administered as a vehicle to a control group. Then, the bilateral vertebral arteries were permanently occluded under anesthesia. On the next day, the bilateral common carotid arteries were occluded for 30 minutes under anesthesia using a suture thread. Then, the suture thread was removed, and blood flow was restarted. The date of the bilateral common carotid artery occlusion was defined as the date of the vascular occlusion model preparation, i.e., day 0. 9 days after the model preparation, the rat was caused to swim in the Morris water maze in one trial (training). The hidden platform test was conducted at intervals of 4 trials/day for 5 days from 10 days after the model preparation. On the fifth day of the hidden platform test (14 days after the model preparation), the probe test was conducted 1 hour after the final trial.
The Morris water maze test was conducted using an experimental apparatus described below. A round pool having a diameter of 150 cm, a height of 45 cm, and a water depth of 30 cm was provided. A clear colorless platform having a diameter of 12 cm was positioned approximately 1 cm below the water surface in the round pool. The water temperature of the round pool was set to 23±1° C. Indirect lighting was disposed within the room having the experimental apparatus placed therein, and visual cues (calendar, ball, cube and striped sheet) for the animals were arranged therein. In the test period, this arrangement was always constant. A video tracking system (Smart, Panlab, S.L.U.) was used in measurement.
The hidden platform test was conducted by procedures described below. […] The swimming time to arrive at the platform from the start (escape latency) was measured. […]
The probe test was conducted by procedures described below. […], the swimming time in a zone having the platform placed therein was measured. The stay rate (%) was calculated according to an expression given below using the measured swimming time. […]

GL-2-branched CH3O-PEG (60k)-CH2-^αNH-(h.AM (1-52)) [Compound (8)]
arthritis score (inflammation score) as compared to the vehicle control group [1]: significantly decreased
paw volume as compared to the vehicle control group [1]: significantly decreased
swelling rate as compared to the vehicle control group [1]: significantly decreased
level at time molar at 24 h ([2]; 1 day later): ≥ 2.6 nM
level at time molar at 24 h ([2]; 7 days later): ≥ 0.74 nM
level at time molar at 24 h ([2]; 10 days later): ≥ 0.28 nM
decrease in the blood pressure immediately after the administration, as compared to compound (2) (Wistar rat): further suppressed
rapidly decreased blood pressure immediately after the administration (Wistar rat): not observed
increase in the blood pressure compared to the control group [3]: suppressed
wet weight of the intestinal tract as compared to the vehicle control group ([4]; 5 nmol/kg subcutaneous): tendency to decrease
length of the intestinal tract as compared to the vehicle control group ([4]; 25 nmol/kg subcutaneous): tendency to increase
total score (weight loss, stool consistency, bleeding/mucous and bloody stool) ([4]; 5 and 25 nmol/kg subcutaneous, 3% DSS): significant decrease
death rate associated with the operation for the bilateral common carotid artery occlusion [5]: no significant difference
escape latency in the hidden platform test as compared to the vehicle control group [5]: shortened
stay rate in the probe test as compared to the vehicle control group [5]: significantly increased
